For test [1], the target named is Epithelial discoidin domain-containing receptor 1 (Homo sapiens, UniProt Q08345).
In test [2] the target is Vascular endothelial growth factor receptor 1 (Homo sapiens, UniProt P17948).
The target in test [3] is Cyclin-dependent kinase 18 (Homo sapiens, UniProt Q07002).
Test [4] has as its target Tyrosine-protein kinase Blk (Homo sapiens, UniProt P51451).
Test [5] addresses Fibroblast growth factor receptor 4 (Homo sapiens, UniProt P22455).
Test [6] has as its target T1, Phosphorylase b kinase gamma catalytic chain, liver/testis isoform (Homo sapiens, UniProt P15735).
T1 sequence (P15735 whole entry): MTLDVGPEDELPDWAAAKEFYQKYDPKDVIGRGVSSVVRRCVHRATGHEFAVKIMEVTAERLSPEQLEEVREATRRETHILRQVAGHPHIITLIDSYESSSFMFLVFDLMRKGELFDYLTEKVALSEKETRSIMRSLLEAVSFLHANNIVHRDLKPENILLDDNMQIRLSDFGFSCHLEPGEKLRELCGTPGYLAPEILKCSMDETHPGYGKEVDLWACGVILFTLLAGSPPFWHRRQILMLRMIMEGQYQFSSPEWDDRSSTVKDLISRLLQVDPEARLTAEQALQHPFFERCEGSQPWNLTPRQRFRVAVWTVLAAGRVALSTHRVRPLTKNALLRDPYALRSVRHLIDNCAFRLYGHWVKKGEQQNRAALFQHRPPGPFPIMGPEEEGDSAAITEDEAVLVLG

Test [7] concerns the target Mitogen-activated protein kinase 1 (Homo sapiens, UniProt P28482).
Test [8] deals with BDNF/NT-3 growth factors receptor (Homo sapiens, UniProt Q16620).
Test [9] has as its target T2, Serine/threonine-protein kinase TNNI3K (Homo sapiens, UniProt Q59H18).
T2 sequence (Q59H18 whole entry): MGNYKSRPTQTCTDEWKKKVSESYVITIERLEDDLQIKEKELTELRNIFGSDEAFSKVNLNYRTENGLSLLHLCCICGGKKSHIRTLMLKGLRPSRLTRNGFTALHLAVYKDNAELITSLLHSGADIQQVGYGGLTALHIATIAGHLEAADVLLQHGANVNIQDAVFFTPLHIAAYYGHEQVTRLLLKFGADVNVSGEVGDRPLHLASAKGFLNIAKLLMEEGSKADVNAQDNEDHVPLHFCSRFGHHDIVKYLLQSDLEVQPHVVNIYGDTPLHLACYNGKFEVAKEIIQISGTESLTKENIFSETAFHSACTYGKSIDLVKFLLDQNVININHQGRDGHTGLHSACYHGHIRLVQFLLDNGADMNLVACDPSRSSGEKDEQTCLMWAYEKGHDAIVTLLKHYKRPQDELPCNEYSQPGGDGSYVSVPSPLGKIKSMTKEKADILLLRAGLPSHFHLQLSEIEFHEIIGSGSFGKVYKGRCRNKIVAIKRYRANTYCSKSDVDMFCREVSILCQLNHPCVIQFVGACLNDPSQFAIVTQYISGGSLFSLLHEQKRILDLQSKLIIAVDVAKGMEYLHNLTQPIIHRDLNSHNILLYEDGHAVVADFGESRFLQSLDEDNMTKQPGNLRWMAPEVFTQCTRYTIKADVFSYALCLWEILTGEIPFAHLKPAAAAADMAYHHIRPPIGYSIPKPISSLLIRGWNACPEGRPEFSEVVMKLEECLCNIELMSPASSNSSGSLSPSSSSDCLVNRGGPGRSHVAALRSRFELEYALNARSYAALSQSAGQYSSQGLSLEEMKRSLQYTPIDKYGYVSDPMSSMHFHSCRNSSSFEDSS

Test [10] concerns the target Serine/threonine-protein kinase MRCK beta (Homo sapiens, UniProt Q9Y5S2).
For test [11], the target named is T3, Membrane-associated tyrosine- and threonine-specific cdc2-inhibitory kinase (Homo sapiens, UniProt Q99640).
T3 sequence (Q99640 whole entry): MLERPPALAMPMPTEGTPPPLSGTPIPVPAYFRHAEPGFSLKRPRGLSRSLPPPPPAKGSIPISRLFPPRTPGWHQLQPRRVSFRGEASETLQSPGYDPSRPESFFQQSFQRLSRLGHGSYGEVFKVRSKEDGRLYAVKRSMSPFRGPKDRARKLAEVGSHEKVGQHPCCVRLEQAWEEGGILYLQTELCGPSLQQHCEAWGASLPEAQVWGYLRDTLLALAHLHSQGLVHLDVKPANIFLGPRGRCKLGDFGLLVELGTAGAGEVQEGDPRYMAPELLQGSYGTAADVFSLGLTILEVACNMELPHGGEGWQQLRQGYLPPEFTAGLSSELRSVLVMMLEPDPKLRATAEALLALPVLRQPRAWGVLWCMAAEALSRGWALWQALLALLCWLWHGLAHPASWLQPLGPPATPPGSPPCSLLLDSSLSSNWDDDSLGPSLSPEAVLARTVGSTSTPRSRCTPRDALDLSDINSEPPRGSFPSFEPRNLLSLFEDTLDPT

The target of test [12] is T4, cGMP-dependent protein kinase 1 (Homo sapiens, UniProt Q13976).
T4 sequence (Q13976 whole entry): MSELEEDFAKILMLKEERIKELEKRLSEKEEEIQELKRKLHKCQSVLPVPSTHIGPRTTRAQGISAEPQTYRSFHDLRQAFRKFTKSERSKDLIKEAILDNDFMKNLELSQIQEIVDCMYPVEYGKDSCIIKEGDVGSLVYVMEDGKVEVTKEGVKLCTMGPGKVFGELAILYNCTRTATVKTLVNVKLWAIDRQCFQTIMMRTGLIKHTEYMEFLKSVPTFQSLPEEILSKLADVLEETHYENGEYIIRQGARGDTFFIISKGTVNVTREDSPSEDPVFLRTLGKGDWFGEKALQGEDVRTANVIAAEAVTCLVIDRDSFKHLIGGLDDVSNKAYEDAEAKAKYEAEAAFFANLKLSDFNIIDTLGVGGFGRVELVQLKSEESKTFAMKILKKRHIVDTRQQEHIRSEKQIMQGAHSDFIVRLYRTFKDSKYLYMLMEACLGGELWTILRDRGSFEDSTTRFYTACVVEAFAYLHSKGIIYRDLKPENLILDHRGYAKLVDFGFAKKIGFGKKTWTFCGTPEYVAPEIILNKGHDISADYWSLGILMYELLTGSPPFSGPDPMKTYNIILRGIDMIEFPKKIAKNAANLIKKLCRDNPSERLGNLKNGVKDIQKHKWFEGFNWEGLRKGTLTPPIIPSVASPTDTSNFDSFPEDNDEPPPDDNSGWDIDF

In a further test the target is eIF-2-alpha kinase GCN2 (Homo sapiens, UniProt Q9P2K8, S808G).

Broadly, the Kd is the equilibrium constant for the complex coming apart. Low values mean a tighter complex, high ones a looser complex. Turning to `COCC(=O)NC/C=C/c1ccc2ncnc(Nc3ccc(Oc4ccc(C)nc4)c(C)c3)c2c1` [CP-724714], the equilibrium dissociation constant (Kd) in test [1], in test [2], in test [3], in test [4], in test [5] and in [6] was > 10 µM each time. Besides, the Kd in test [7], in [8], in test [9], in [10], in test [11] and in [12] was > 10 µM in each case. For the same compound, the Kd on eIF-2-alpha kinase GCN2 is > 10 µM.
`Nc1nc(Nc2ccc(S(N)(=O)=O)cc2)nn1C(=O)c1c(F)cccc1F` [JNJ-7706621]: the Kd is > 10 µM in [1]; > 10 µM in test [4]; > 10 µM in test [5]; > 10 µM in test [6]; > 10 µM in test [8]; 1.4 µM in test [9]. In addition, the dissociation constant Kd in [10] is > 10 µM; in [11], > 10 µM; in test [12], > 10 µM; at eIF-2-alpha kinase GCN2, 3.9 µM.
As for `CCOc1cc2ncc(C#N)c(Nc3ccc(F)c(Cl)c3)c2cc1NC(=O)/C=C/CN(C)C` [PELITINIB], the Kd in test [1] is > 10 µM; in [2], > 10 µM; in [3], > 10 µM; in test [4] it was 0.078 µM; in test [5] it was > 10 µM; in [6], > 10 µM. Further, the Kd is > 10 µM in test [7]; > 10 µM in test [8]; 7.2 µM in test [9]; > 10 µM in [10]; 2.9 µM in [11]; > 10 µM in test [12]. On eIF-2-alpha kinase GCN2, this compound registered a Kd of 0.29 µM.
Turning to `Oc1ccc(-c2nc(-c3ccncc3)c(-c3ccc(F)cc3)[nH]2)cc1` [SB-202190], the Kd in [2], in [3], in test [4], in test [5], in [6] and in test [7] was > 10 µM throughout. Moreover, the Kd is > 10 µM in test [8]; > 10 µM in [9]; 4.2 µM in [10]; > 10 µM in [11]; > 10 µM in [12]; > 10 µM at eIF-2-alpha kinase GCN2.
Take `NC(=O)c1ccc(-c2nc(-c3ccc4c(c3)OCO4)c(-c3ccccn3)[nH]2)cc1` [SB-431542]: the Kd in test [1], in [2], in test [3], in test [4], in [5] and in test [6] was > 10 µM in each case. The Kd in [7], in test [8], in test [9], in test [10], in [11] and in test [12] was > 10 µM throughout. In addition, the Kd on eIF-2-alpha kinase GCN2 was > 10 µM.

The values above are taken from ChEMBL document CHEMBL1150977, “A quantitative analysis of kinase inhibitor selectivity” (Nat Biotechnol, 2008).
